In patent US12624057B2, “Bisphosphonate quinolone conjugates and uses thereof” (BIOVINC, LLC, priority 2016, dated 2026):
Converted amounts (≈) assume the structure as drawn. “Also recorded” adds a separate entry of the source.

Columns and labels:
[1] = tested on: planktonic S. aureus strain ATCC-6538; experiment: Antimicrobial susceptibility testing in acidic versus basic/physiological pH; type: cell-based, Staphylococcus aureus; settings: acidic (pH 5) versus basic/physiological (pH 7.4)
Method: (§1) Antimicrobial susceptibility testing of BP-ciprofloxacin against planktonic cultures of S. aureus strain ATCC-6538 in acidic versus basic pH: This experimental setting was performed in the same manner as described previously for disc diffusion testing, but microbiological media was adjusted to pH 7.4 and pH 5 using KOH or HCL solution and measured using a universal pH-indicator (Merck, Poland).
as §1, with “6” for “BP-ciprofloxacin”, “physiological” for “basic”

[2] = tested on: S. aureus strain ATCC-6538 (MSSA) and clinical MRSA strain MR4-CIPS; experiment: Time-kill assay (CLSI); type: cell-based, Staphylococcus aureus; settings: for time-kill profile (in words): 1× and ½× MIC, 24 hrs
Method: Time-kill assay for BP-ciprofloxacin conjugate against S. aureus strain ATCC-6538 (MSSA) and clinical MRSA strain MR4-CIPS: This experiment was performed in the same manner as described previously under the subheading: “Evaluation of MIC of tested compounds against planktonic forms of clinical staphylococcal strains analyzed”, but absorbance assays (at 580 nm wavelength) were taken in hour: 0, 1, 2, 4, 8, 16, 24.

[3] = In vivo tolerability during the rat peri-implant osteomyelitis studies; set-up: species or system Sprague-Dawley rats; settings: intraperitoneal
Text: To determine appropriate dosing concentrations, we calculated approximate initial doses for the conjugate based on previous studies and pharmacokinetic data using similar target and release strategies and also rodents (Houghton, et al., Linking bisphosphonates to the free amino groups in fluoroquinolones: preparation of osteotropic prodrugs for the prevention of osteomyelitis. J Med Chem 2008; 51:6955-69; Morioka, et al., Design, synthesis, and biological evaluation of novel estradiol-bisphosphonate conjugates as bone-specific estrogens. Bioorg Med Chem 2010; 18:1143-8). We expected that increasing doses of 0.1, 1 and 10 mg/kg BP-ciprofloxacin molar equivalents will allow us to determine antimicrobial activity in 2 test animals per group based on sample size estimations and previous experience with the animal model (Freire, et al, Development of animal model for Aggregatibacter actinomycetemcomitans biofilm-mediated oral osteolytic infection: a preliminary study. J Periodontol 2011; 82:778-89). Animals were dosed via intraperitoneal injection under general anesthesia, and all compounds were constituted in sterile physiological injectable saline at appropriate pH. One week after pharmacotherapy, all animals were sacrificed and resection of peri-implant tissues was performed, and tissues were immediately homogenized and processed for quantitative assessment of microbial load. Animals were monitored throughout the study period for local or systemic adverse effects of pharmacotherapy.
To determine appropriate dosing concentrations, approximate initial doses were calculated for the conjugate based on previous studies and pharmacokinetic data using similar target and release strategies also in rodents.^13, 26 Increasing doses of 0.1, 1 and 10 mg/kg molar equivalents of 6 can allow for determination of antimicrobial activity in 2 test animals per group based on sample size estimations and previous experience with the animal model.^32 Animals were dosed via intraperitoneal injection under general anesthesia, and all compounds were constituted in sterile physiological injectable saline at appropriate pH.

[4] = tested on: Aggregatibacter actinomycetemcomitans biofilms on titanium implants; experiment: Rat jawbone peri-implant osteomyelitis model, first animal experiment; type: in vivo, Sprague-Dawley rats; settings: conjugate, 0.3 mg/kg ×3 over a week (0.9 mg/kg total)
[5] = tested on: Aggregatibacter actinomycetemcomitans (Aa; wild-type rough strain D7S-1; serotype a); experiment: MIC assay on Aa; type: cell-based
Text: Since this BP-ciprofloxacin conjugate is novel and has not been tested in vivo, we performed an initial safety and efficacy study in an animal model of peri-implant osteomyelitis. This model is a unique in-house jawbone peri-implant osteomyelitis model that was developed specifically for translational value to study biofilm-mediated disease and host response in vivo (Freire, et al, Development of animal model for Aggregatibacter actinomycetemcomitans biofilm-mediated oral osteolytic infection: a preliminary study. J Periodontol 2011; 82:778-89). […] After biofilms are established on the implants in vitro, they are surgically transferred to the jawbone of each rat. Animals are anesthetized, the cheeks are retracted and a transmucosal osteotomy is performed so implants can be manually inserted into the osteotomy and secured. Two biofilm-inoculated implants are placed in each rat (n=12 rats and 24 implants) in the palatal bone bilaterally.
Subsequently, the plate was incubated for 24 h/37° C. in a shaker to obtain optimal conditions for microbial growth and to prevent bacteria from forming biofilms. After incubation, the absorbance was measured once again. The following control samples were established: negative control sample one: sterile medium without microbes; negative control sample two: sterile medium without microbes implemented with DMSO (dimethyl sulfoxide, Sigma-Aldritch) to final concentration of 1% (v/v); positive control sample one: medium+microbes with no compound tested; positive control sample two: medium+microbes with no compound tested but implemented with DMSO to final concentration of 1% (v/v). […] To assess relative number of cells, the following calculations were performed. […] Next, the relative number of cells subjected to incubation with tested compounds were counted as follows: […].
After biofilms were established on the implants in vitro, they were surgically transferred to the jawbone of each rat. […]

| Compound | effect of pH on antimicrobial activity / concentration to reach MIC50 [1] | effect of pH on antimicrobial activity / concentration to reach MIC50 ([1]; listed as BP-ciprofloxacin) | time-kill profile (in words) [2] | time-kill profile (in words) ([2]; listed as BP-ciprofloxacin) | time to bactericidal activity / evident prevention of growth ([2]; at half the MIC) [h] | growth inhibition ([2]; at half the MIC, up to/after 24 hrs, versus controls) [%] | time to bactericidal activity / evident prevention of growth ([2]; at half the MIC, listed as conjugate) [h] | time to bactericidal activity ([2]; at the established MIC) [h] | prevention of bacterial growth ([2]; at the established MIC, up to 24 hrs) [%] | tolerability / adverse events ([3]; first animal experiment, listed as BCC) | tolerability / adverse events ([3]; first animal experiment, listed as BP-ciprofloxacin) | tolerability / adverse events ([3]; second animal experiment) | tolerability / adverse events ([3]; second animal experiment, listed as BCC) | bacterial killing [4] [%] | recovery of bacteria (in words) [4] | recovery of bacteria (in words) ([4]; listed as BP-ciprofloxacin) | MIC90 ([5]; Example 1) [µg/mL] | MIC90 ([5]; Example 5) [µg/mL] | MIC90 ([5]; Example 6) [µg/mL] |
| --- | --- | --- | --- | --- | --- | --- | --- | --- | --- | --- | --- | --- | --- | --- | --- | --- | --- | --- | --- |
| O=C(O)c1cn(C2CC2)c2cc(N3CCN(C(=O)Oc4ccc(CC(P(=O)(O)O)P(=O)(O)O)cc4)CC3)c(F)cc2c1=O [Compound 6, 1-cyclopropyl-7-(4-((4-(2,2-diphosphonoethyl)phenoxy)carbonyl)piperazin-1-yl)-6-fluoro-4-oxo-1,4-dihydroquinoline-3-carboxylic acid] | half the conjugate concentration; also recorded: slightly improved profile in acidic conditions | half the conjugate concentration; also recorded: improved bactericidal profile in acidic | sustained bactericidal activity over 24 hrs | strong bactericidal activity at 1 hr and up to 24 hrs | 2 | 50 | ≤ 1 | ≤ 1 | 100 | no potential systemic toxicity or adverse effects | safety and efficacy was demonstrated in vivo | no signs of gross tolerability issues during therapy | tolerated treatment and pharmacotherapy well with no adverse events | 100 | no recoverable bacteria | no recovery of Aa; also recorded: no recoverable bacteria | – | – | – |
| O=C(O)c1cn(C2CC2)c2cc(N3CCNCC3)c(F)cc2c1=O [ciprofloxacin, reference compound] | – | – | – | – | – | – | – | – | – | – | – | – | – | – | – | – | 2 (≈ 6.04 µM) | 2 (≈ 6.04 µM) | 2000 (≈ 6040 µM) |
